Read-outs that look alike come from different tables or passages of the source.
Assays:
Assay type in all cases: cell-based
[1] = test system: T47D (PI3Kα H1047R mutant) cells; assay: CellTiter-Glo 2.0 luminescent cell viability assay, 72 hours, T47D cells; details: T47D (PI3Kα H1047R mutant) cells, CellTiter-Glo, approximately 72 hours, read-out: T47D (H1047R mutant) Viability IC50
Summary of the method: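 Viability was measured by CellTiter-Glo 2.0 luminescence after approximately 72 h of compound exposure at 37° C. Plating was 1000 cells per well the day before dosing, with ten 1:4 dilutions from a 10 µM top concentration. Values as percent of vehicle were fitted by variable-slope log(inhibitor) regression to give IC50.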

[2] = test system: T47D (PI3Kα H1047R mutant) cells; assay: Inhibition of pAKT formation, alphaLISA SureFire Ultra AKT 1/2/3 (pS473), T47D cells; details: Homo sapiens, T47D, T47D (PI3Kα H1047R mutant) cells; inhibition of pAKT (pS473) formation; approximately one hour or 24 hours treatment; read-out: T47D pAKT (H1047R mutant) IC50
Summary of the method: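 AKT Ser473 phosphorylation was quantified by alphaLISA SureFire Ultra after roughly 1 h or 24 h compound exposure at 37 °C. Cells were T47D (12,000/well in HBSS), treated with a 10-point 1:4 series starting at 10.4 μM. Percent of control used alpelisib background and DMSO reference, and IC50 came from four-parameter logistic fitting.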

[3] = test system: SKBR3 (PI3Kα wild type) cells; assay: CellTiter-Glo 2.0 luminescent cell viability assay, 72 hours, SKBR3 cells; details: SKBR3 (PI3Kα wild type) cells, CellTiter-Glo, approximately 72 hours, read-out: SKBR3 (WT) Viability IC50
Summary of the method: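 Viability measured via CTG luminescence following roughly 72 hours of compound exposure at 37° C. Dosing used a 10 um starting concentration diluted 1:4 over 10 points; percent-of-vehicle data fitted with a variable-slope four-parameter model for IC50.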

| IC50 ([1]; Homo sapiens, T47D, 72 h) [nM] | IC50 [2] [nM] | IC50 ([3]; Homo sapiens, SK-BR-3, 72 h) [nM] | IC50 [1] [nM] | IC50 [3] [nM] | SMILES |
| --- | --- | --- | --- | --- | --- |
| 77.5 | 0.299 | > 10000 |  |  | Cc1cc([C@@H](C)Nc2ccccc2C(=O)O)c2nc(N3CCCCC3)c(F)c(=O)n2c1 [Example 10-79, (R)-2-((1-(3-fluoro-7-methyl-4-oxo-2-(piperidin-1-yl)-4H-pyrido[1,2-a]pyrimidin-9-yl)ethyl)amino)benzoic acid] |
| 74.4 | 1.19 | > 10000 |  |  | Cc1cc([C@@H](C)Nc2ccccc2C(=O)O)c2nc(N3CCC(F)(F)[C@@H](C)C3)c(C)c(=O)n2c1 [Example 10-127, 2-(((R)-1-(2-((S)-4,4-difluoro-3-methylpiperidin-1-yl)-3,7-dimethyl-4-oxo-4H-pyrido[1,2-a]pyrimidin-9-yl)ethyl)amino)benzoic acid] |
| 56.5 | 2.19 | > 10000 |  |  | Cc1cc([C@@H](C)Nc2ccccc2C(=O)O)c2nc(N3CCN(c4nccs4)CC3)c(C)c(=O)n2c1 [Example 10-33, (R)-2-((1-(3,7-dimethyl-4-oxo-2-(4-(thiazol-2-yl)piperazin-1-yl)-4H-pyrido[1,2-a]pyrimidin-9-yl)ethyl)amino)benzoic acid] |
| 82.8 | 1.71 | > 10000 |  |  | Cc1cc([C@@H](C)Nc2ccccc2C(=O)O)c2nc(N3Cc4ccc(F)cc4C3)c(C#N)c(=O)n2c1 [Example 10-92, (R)-2-((1-(3-cyano-2-(5-fluoroisoindolin-2-yl)-7-methyl-4-oxo-4H-pyrido[1,2-a]pyrimidin-9-yl)ethyl)amino)benzoic acid] |
| 64.2 | 2.94 | > 10000 |  |  | Cc1cc([C@@H](C)Nc2ccccc2C(=O)O)c2nc(N3CCN(c4ccccc4C#N)CC3)c(C)c(=O)n2c1 [Example 10-45, (R)-2-((1-(2-(4-(2-cyanophenyl)piperazin-1-yl)-3,7-dimethyl-4-oxo-4H-pyrido[1,2-a]pyrimidin-9-yl)ethyl)amino)benzoic acid] |
| 72.4 | 3.35 | 4140 |  |  | Cc1cc([C@@H](C)Nc2ccccc2C(=O)O)c2nc(N3CCN(c4ccc(C#N)cc4F)CC3)c(C)c(=O)n2c1 [Example 10-55, (R)-2-((1-(2-(4-(4-cyano-2-fluorophenyl)piperazin-1-yl)-3,7-dimethyl-4-oxo-4H-pyrido[1,2-a]pyrimidin-9-yl)ethyl)amino)benzoic acid] |
|  | 1.6 |  | 42.7 | 7450 | Cc1cc([C@@H](C)Nc2ccccc2C(=O)O)c2nc(N3CCN(c4ccc(C#N)cc4)CC3C)c(C)c(=O)n2c1 (stereo partly drawn) [Example 10-20, 2-(((1R)-1-(2-(4-(4-cyanophenyl)-2-methylpiperazin-1-yl)-3,7-dimethyl-4-oxo-4H-pyrido[1,2-a]pyrimidin-9-yl)ethyl)amino)benzoic acid] |
| 56.6 | 1.38 | > 10000 |  |  | Cc1cc([C@@H](C)Nc2ccccc2C(=O)O)c2nc(N3CCN(c4ccccn4)CC3)c(C)c(=O)n2c1 [Example 10-34, (R)-2-((1-(3,7-dimethyl-4-oxo-2-(4-(pyridin-2-yl)piperazin-1-yl)-4H-pyrido[1,2-a]pyrimidin-9-yl)ethyl)amino)benzoic acid] |
| 38.4 | 2.01 | > 10000 |  |  | Cc1cc([C@@H](C)Nc2ccccc2C(=O)O)c2nc(N3CCCC(F)(F)C3)c(C)c(=O)n2c1 [Example 10-18, (R)-2-((1-(2-(3,3-difluoropiperidin-1-yl)-3,7-dimethyl-4-oxo-4H-pyrido[1,2-a]pyrimidin-9-yl)ethyl)amino)benzoic acid] |
| 62.5 | 1.47 | 5030 |  |  | Cc1cc([C@@H](C)Nc2ccccc2C(=O)O)c2nc(N3CC(C)C(F)(F)C3)c(C#N)c(=O)n2c1 (stereo partly drawn) [Example 10-44, 2-(((1R)-1-(3-cyano-2-(3,3-difluoro-4-methylpyrrolidin-1-yl)-7-methyl-4-oxo-4H-pyrido[1,2-a]pyrimidin-9-yl)ethyl)amino)benzoic acid] |
| 62.2 | 2.52 | > 10000 |  |  | Cc1cc([C@@H](C)Nc2ccccc2C(=O)O)c2nc(N3Cc4ccccc4C3)c(C#N)c(=O)n2c1 [Example 10-43, (R)-2-((1-(3-cyano-2-(isoindolin-2-yl)-7-methyl-4-oxo-4H-pyrido[1,2-a]pyrimidin-9-yl)ethyl)amino)benzoic acid] |
| 33.1 | 2.34 | 8790 |  |  | Cc1cc([C@@H](C)Nc2ccc(Cl)nc2C(=O)O)c2nc(N3Cc4ccccc4C3)c(C#N)c(=O)n2c1 [Example 10-14, (R)-6-chloro-3-((1-(3-cyano-2-(isoindolin-2-yl)-7-methyl-4-oxo-4H-pyrido[1,2-a]pyrimidin-9-yl)ethyl)amino)picolinic acid] |
| 98.8 | 2.62 | > 10000 |  |  | Cc1cc([C@@H](C)Nc2ccccc2C(=O)O)c2nc(NCC3(C)CC3(F)F)c(C#N)c(=O)n2c1 (stereo partly drawn) [Example 10-60, 2-(((1R)-1-(3-cyano-2-(((2,2-difluoro-1-methylcyclopropyl)methyl)amino)-7-methyl-4-oxo-4H-pyrido[1,2-a]pyrimidin-9-yl)ethyl)amino)benzoic acid] |
| 86.8 | 5.78 | > 10000 |  |  | Cc1cc([C@@H](C)Nc2ccccc2C(=O)O)c2nc(N3CCN(c4ccc(C#N)cc4C)CC3)c(C#N)c(=O)n2c1 [Example 10-101, (R)-2-((1-(3-cyano-2-(4-(4-cyano-2-methylphenyl)piperazin-1-yl)-7-methyl-4-oxo-4H-pyrido[1,2-a]pyrimidin-9-yl)ethyl)amino)benzoic acid] |
| 66.3 | 2.96 | > 10000 |  |  | Cc1cc([C@@H](C)Nc2ccccc2C(=O)O)c2nc(N3CCN(c4cc(C)no4)CC3)c(C)c(=O)n2c1 [Example 10-48, (R)-2-((1-(3,7-dimethyl-2-(4-(3-methylisoxazol-5-yl)piperazin-1-yl)-4-oxo-4H-pyrido[1,2-a]pyrimidin-9-yl)ethyl)amino)benzoic acid] |
| 96.4 | 4.82 | > 10000 |  |  | Cc1cc([C@@H](C)Nc2ccccc2C(=O)O)c2nc(N3CCC4(CC3)COC4)c(C)c(=O)n2c1 [Example 10-111, (R)-2-((1-(3,7-dimethyl-4-oxo-2-(2-oxa-7-azaspiro[3.5]nonan-7-yl)-4H-pyrido[1,2-a]pyrimidin-9-yl)ethyl)amino)benzoic acid] |
| 73.3 | 5.17 | > 10000 |  |  | Cc1cc([C@@H](C)Nc2ccccc2C(=O)O)c2nc(N3CCN(c4ccccc4)CC3C)c(C#N)c(=O)n2c1 (stereo partly drawn) [Example 10-57, 2-(((1R)-1-(3-cyano-7-methyl-2-(2-methyl-4-phenylpiperazin-1-yl)-4-oxo-4H-pyrido[1,2-a]pyrimidin-9-yl)ethyl)amino)benzoic acid] |
| 110 | 1.05 | > 10000 |  |  | Cc1cc([C@@H](C)Nc2ccccc2C(=O)O)c2nc(N3CCC(F)(F)C3)c(C#N)c(=O)n2c1 [Example 10-75, (R)-2-((1-(3-cyano-2-(3,3-difluoropyrrolidin-1-yl)-7-methyl-4-oxo-4H-pyrido[1,2-a]pyrimidin-9-yl)ethyl)amino)benzoic acid] |
| 56.7 | 4.72 | 7950 |  |  | Cc1cc([C@@H](C)Nc2ccccc2C(=O)O)c2nc(N3CCN(c4ccc(C#N)c5cc(C#N)ccc45)CC3)c(C)c(=O)n2c1 [Example 10-35, (R)-2-((1-(2-(4-(4,6-dicyanonaphthalen-1-yl)piperazin-1-yl)-3,7-dimethyl-4-oxo-4H-pyrido[1,2-a]pyrimidin-9-yl)ethyl)amino)benzoic acid] |
| 109 | 1.7 | > 10000 |  |  | Cc1cc([C@@H](C)Nc2ccccc2C(=O)O)c2nc(N3CC4CC3C4)c(C#N)c(=O)n2c1 [Example 10-76, (R)-2-((1-(2-(2-azabicyclo[2.1.1]hexan-2-yl)-3-cyano-7-methyl-4-oxo-4H-pyrido[1,2-a]pyrimidin-9-yl)ethyl)amino)benzoic acid] |
| 48.6 | 5.49 | > 10000 |  |  | Cc1cc([C@@H](C)Nc2ccccc2C(=O)O)c2nc(N3CCN(c4ccc(C#N)cc4)[C@H](C)C3)c(C)c(=O)n2c1 [Example 10-24, 2-(((R)-1-(2-((R)-4-(4-cyanophenyl)-3-methylpiperazin-1-yl)-3,7-dimethyl-4-oxo-4H-pyrido[1,2-a]pyrimidin-9-yl)ethyl)amino)benzoic acid] |

| SMILES | IC50 ([1]; Homo sapiens, T47D, 72 h) [nM] | IC50 [2] [nM] | IC50 ([3]; Homo sapiens, SK-BR-3, 72 h) [nM] | IC50 [1] [nM] | IC50 [3] [nM] |
| --- | --- | --- | --- | --- | --- |
| Cc1cc([C@@H](C)Nc2ccccc2C(=O)O)c2nc(N3C4CCCC3CC4)c(C#N)c(=O)n2c1 [Example 10-89, 2-(((1R)-1-(2-(8-azabicyclo[3.2.1]octan-8-yl)-3-cyano-7-methyl-4-oxo-4H-pyrido[1,2-a]pyrimidin-9-yl)ethyl)amino)benzoic acid] | 81.7 | 8.14 | > 10000 |  |  |
